These results are taken from patent US20240165096A1, “Anti Viral Therapy” (priority 2021, published 2024).

For one series, the system named is SARS-COV-2 NSP12 RNA. As to the kind of experiment: RT-qPCR of viral NSP12 RNA in infected Calu3 cells. Format: cell-based.
The test system of series [1] is SARS-COV-2. It counts as cell-based.
Series [2] concerns SARS-COV-2. As to the kind of experiment: microbe, parasite or virus in culture. It counts as cell-based. Conditions: for decrease in the amount of virus released from infected Calu3 cells: pretreatment 24 h, PHE strain MOI 0.1, plaque assay; for pIC50: Severe acute respiratory syndrome coronavirus 2, Calu-3, drug alone, infected Calu3 cells, pre-treated 24 hours prior to infection, 6 concentrations.

For another series, the system named is Vero cells. The protocol: (§1) Compounds were acoustically transferred into black 384 well optical bottom plates (Nunc-UK). Calu-3 and Vero cells were maintained as described for the infection assay and seeded in the assay-ready plates at a density of 3×10^3 cells/well for Vero cells, and 9×10^3 cells/well for Calu-3 cells. Plates were incubated for 72 h at 37° C. and 5% CO2. To assess cell toxicity, CellTox™ Green Cytotoxicity Assay (Promega-UK) was undertaken following the manufacturer's instructions. Plates were incubated for 15 min prior to recording fluorescence (480/520 nm) using a […] (CLARIOstar Plus; BMG LABTECH, UK).

The next series concerns Calu3 cells. As for the experimental part: as §1
Series [3] concerns SARS-COV-2. In words: microbe, parasite or virus in culture. Conditions: Severe acute respiratory syndrome coronavirus 2, Calu-3, in Homo sapiens, read-out: protection from infection of SARS-COV-2 (percent inhibition of CPE).
Series [4] concerns SARS-COV-2. The note with it: 5 μM, Calu3 and Vero cells, MOI 0.1, CPE 3 days post infection.

Each structure is given as a SMILES string. pIC50: −log10 of the molar value. Where a name gives a salt, the structure may show the parent alone. Read-outs that look alike come from different tables or passages of the source. Some results are limits rather than exact numbers.

As for `O=C(O)COCCN1CCN([C@H](c2ccccc2)c2ccc(Cl)cc2)CC1` [Levocetirizine Dihydrochloride], in the series with IFNλ, the “IFNλ release and/or activity (expression)” value (“IFNλ release and/or activity” for short) is given as “enhanced IFNλ release and/or activity” and the SARS-COV-2-mediated cytotoxicity entry is reported as “failed to inhibit cytotoxicity”.

Regarding `CN1CCC(=C2c3ccccc3CCc3cccnc32)CC1` [Azatadine], the “reduction of viral NSP12 RNA levels” value in the series with SARS-COV-2 NSP12 RNA (5 μM, infected Calu3 cells) is reported as roughly 50%. Also, the “levels of viral NSP12 RNA” value with SARS-COV-2 NSP12 RNA (both concentrations (5 and 25 μM), RT-qPCR) was “substantially reduced”. In addition, in the series on IFNλ, the “IFNλ release and/or activity” value was “enhanced the release and/or activity of IFNλ”, the SARS-COV-2-mediated cytotoxicity result was “robustly inhibited” and the “rank among interferon-enhancing drugs” value was “top 1%”. Further, in the series with IFNλ (listed as Azatadine maleate), the “IFNλ release and/or activity” value was “increase IFN-λ expression”. Further, the “reduction of virus growth kinetics” value in the series with SARS-COV-2 [1] is on record as 10^2 PFU/mL. For the same compound, in the series on SARS-COV-2 [1] (donor #311, 25 μM), the “SARS-COV-2 titres following treatment” value is reported as “no difference”. In addition, the “decrease in the amount of virus released from infected Calu3 cells” value (shortened to “decrease in the amount of virus released”) with SARS-COV-2 [2] (5 μM) is roughly 100 fold. Moreover, in the series on SARS-COV-2 [2] (25 μM), the “decrease in the amount of virus released” value is recorded as roughly 5000 fold. The pIC50 in the series with SARS-COV-2 [2] was roughly 5.31. In the series with SARS-COV-2 [2] (both concentrations (5 and 25 μM), plaque assay), the “levels of mature infectious viral particles released from infected cells” value is reported as “substantially reduced”. For the same compound, the “cytotoxicity on Vero cells” value with Vero cells was “not cytotoxic”. The “cytotoxicity on Calu3 cells” value in the series on Calu3 cells is on record as “not cytotoxic”. Moreover, the inhibition at 5 µM in the series with SARS-COV-2 [3] was no less than 90%.

Take `CN1CCC(=C2c3ccccc3C=Cc3ccccc32)CC1` [Cyproheptadine]: the “antiviral effects in the screens” value with SARS-COV-2 [4] is “did not show any antiviral effects”.

Regarding `CCC(CC)COC(=O)[C@H](C)N[P@](=O)(OC[C@H]1O[C@@](C#N)(c2ccc3c(N)ncnn23)[C@H](O)[C@@H]1O)Oc1ccccc1` [Remdesivir], the “reduction of virus growth kinetics” value in the series on SARS-COV-2 [1] is reported as 10^3 PFU/mL. Further, in the series on SARS-COV-2 [1] (donor #311, 1 μM), the “reduction in viral titres relative to the DMSO control” value was found to be 1.47 log10. The “decrease in the amount of virus released” value with SARS-COV-2 [2] (1 μM) is roughly 5000 fold. The pIC50 in the series on SARS-COV-2 [2] was roughly 6.72.
